Measurements published in article PMC1198225, “Novel curcumin- and emodin-related compounds identified by in silico 2D/3D conformer screening induce apoptosis in tumor cells” (BMC Cancer, 2005).
Like-named read-outs stand apart in the source and are kept apart here.

Key:
recombinant PKD = target: T1, recombinant PKD (Homo sapiens, UniProt Q15139); test: [γ-32P]ATP phosphorylation of c-Jun, SDS-PAGE autoradiography, densitometry; format: biochemical
T1 construct: gene PRKD1; commercial recombinant kinase (Upstate)
T1 sequence (Q15139 1-912): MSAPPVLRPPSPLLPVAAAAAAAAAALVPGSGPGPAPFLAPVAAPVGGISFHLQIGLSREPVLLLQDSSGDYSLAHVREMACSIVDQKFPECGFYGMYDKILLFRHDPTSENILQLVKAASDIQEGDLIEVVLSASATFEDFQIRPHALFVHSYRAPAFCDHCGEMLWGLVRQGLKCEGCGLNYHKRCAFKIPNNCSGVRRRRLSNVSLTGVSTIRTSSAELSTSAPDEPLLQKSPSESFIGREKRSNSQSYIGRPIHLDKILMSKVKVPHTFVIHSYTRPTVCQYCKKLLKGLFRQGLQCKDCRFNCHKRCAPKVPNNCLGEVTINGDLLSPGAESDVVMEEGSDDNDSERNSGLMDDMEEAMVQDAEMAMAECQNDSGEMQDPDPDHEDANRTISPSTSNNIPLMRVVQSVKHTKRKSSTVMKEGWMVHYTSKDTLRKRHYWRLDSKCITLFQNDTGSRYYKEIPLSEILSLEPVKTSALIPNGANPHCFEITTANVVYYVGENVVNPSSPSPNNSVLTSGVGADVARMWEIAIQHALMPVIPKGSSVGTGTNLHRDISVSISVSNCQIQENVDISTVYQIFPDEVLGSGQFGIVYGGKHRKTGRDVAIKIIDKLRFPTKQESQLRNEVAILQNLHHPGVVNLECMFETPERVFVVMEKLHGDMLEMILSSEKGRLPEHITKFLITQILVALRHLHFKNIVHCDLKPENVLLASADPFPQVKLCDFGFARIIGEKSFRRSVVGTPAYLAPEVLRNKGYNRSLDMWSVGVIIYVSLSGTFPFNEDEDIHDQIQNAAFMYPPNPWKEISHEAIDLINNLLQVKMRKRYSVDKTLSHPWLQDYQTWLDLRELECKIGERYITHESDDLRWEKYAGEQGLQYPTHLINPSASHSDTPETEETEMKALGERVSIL
Source text: [γ-32P]ATP phosphorylation of c-Jun, SDS-PAGE autoradiography, densitometry on recombinant PKD

Recombinant CK2 (2α2β) = target: T2, Recombinant CK2 (2α2β) (Homo sapiens, UniProt P68400); test: as above; format: biochemical
T2 construct: gene CSNK2A1; commercial recombinant holoenzyme (Calbiochem), alpha2beta2 tetramer; with Casein kinase II subunit beta
Source text: [γ-32P]ATP phosphorylation of c-Jun, SDS-PAGE autoradiography, densitometry on Recombinant CK2 (2α2β)

T2 sequence (P68400 whole entry): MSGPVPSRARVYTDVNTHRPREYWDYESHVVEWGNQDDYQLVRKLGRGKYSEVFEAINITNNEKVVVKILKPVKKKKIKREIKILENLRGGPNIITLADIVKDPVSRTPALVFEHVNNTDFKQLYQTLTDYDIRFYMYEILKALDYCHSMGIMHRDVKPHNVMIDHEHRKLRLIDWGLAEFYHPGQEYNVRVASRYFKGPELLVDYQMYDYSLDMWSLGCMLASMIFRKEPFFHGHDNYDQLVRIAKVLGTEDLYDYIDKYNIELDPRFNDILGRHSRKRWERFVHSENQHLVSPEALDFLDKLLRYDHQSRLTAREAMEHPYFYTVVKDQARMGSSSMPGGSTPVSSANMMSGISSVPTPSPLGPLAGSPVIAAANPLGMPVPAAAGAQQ
T2 sequence (P67870 2-215 partner): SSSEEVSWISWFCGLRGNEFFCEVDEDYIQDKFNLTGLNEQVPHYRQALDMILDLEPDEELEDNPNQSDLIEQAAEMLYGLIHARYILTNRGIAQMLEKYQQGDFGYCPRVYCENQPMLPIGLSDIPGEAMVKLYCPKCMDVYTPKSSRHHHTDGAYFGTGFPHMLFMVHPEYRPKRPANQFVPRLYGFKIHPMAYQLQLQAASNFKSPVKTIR

| SMILES | IC50 (recombinant PKD; read-out: IC50 PKD) [µM] | IC50 (Recombinant CK2 (2α2β); read-out: IC50 CK2) [µM] | IC50 (recombinant PKD) [µM] | IC50 (Recombinant CK2 (2α2β)) [µM] |
| --- | --- | --- | --- | --- |
| O=C(NN=Cc1cc(Cl)cc(Cl)c1O)c1ccccn1 [BTB00363, 2-Pyridinecarboxylic acid, [(3,5-dichloro-2-hydroxyphenyl)methylene]hydrazide] | 118 | 333 | – | – |
| O=C1C=CC(=O)c2c1c(O)c1ccccc1c2O [BTB14431, 9,10-dihydroxy-1,4-dihydroanthracene-1,4-dione] | – | – | 68.9 | 6.4 |
| COc1ccc2c(=O)c3ccccc3n(C)c2c1 [JFD02836, 3-methoxy-10-methyl-9,10-dihydro-9-acridinone] | – | – | 39.7 | 19.9 |
| O=C1C(=CO)c2ccccc2-c2ccccc21 [JFD03665, 10-(hydroxymethylene)phenanthren-9(10H)-one] | – | – | 155 | 5.9 |
| Oc1cc(O)cc(/C=C/c2ccc(O)c(O)c2)c1 [Piceatannol] | 0.5 | 2.5 | – | – |
| Nc1c2c(nc3cccc(F)c13)OCCC2 [SEW04213, 6-fluoro-3,4-dihydro-2H-pyrano [2,3-b]quinolin-5-amine] | – | – | 186 | 37.9 |
